Assay results from patent US8956869B2, “Peptide inhibiting differentiation of hematopoietic stem cells or hematopoietic precursor cells and use of same” (Kyushu University, National University Corporation, priority 2009, dated 2015).
Where a SMILES comes first, the peptide text is derived from it. Where no end group is shown, it is not given here. The star is where a group is joined. Myristoyl = CCCCCCCCCCCCCC(=O)*

Tests used:
Assay type in all cases: cell-based
[1] = system: human cord blood CD34(+) hematopoietic stem cell population; experiment: Confirmation of induction of cell death (PI staining, live cell ratio); conditions: KS-13 1 and 10 μg/mL, 11 days
Protocol: (§1) (1-2) In order to confirm induction of cell death, cells that were liquid-cultured for 11 days in each experimental system were stained with PI, and the ratio of live cells was calculated based on the measured number of dead cells.
(§2) The live cell ratio {(the number of live cells/(the number of live cells+the number of dead cells)} was calculated for each experimental system (control, positive control, KS-13 (1 μg/mL), and KS-13 (10 μg/mL)), using cells that were liquid-cultured for 11 days as the target cells. The results are shown below.

[2] = as above; conditions: human, liquid-cultured 11 days
Protocol: as §1, §2

[3] = system: mouse fetal liver hematopoietic stem cells (CD45(+)c-Kit(+)Sca-1 (+)); experiment: Hematopoietic colony-forming cell assay; conditions: for number of colonies: peptide 30 μg/mL, culturing for 12 days, 1,000 cells/dish
Protocol: KS-13 (10 μg/mL or 30 μg/mL) was added to a semisolid medium (Methocult M3434 produced by STEMCELL Technologies) containing cell stimulatory factors (50 ng/mL of rm SCF, 10 ng/mL of rm IL-3, 10 ng/mL of rh IL-6, and 3 U/mL of rh EPO) (rm: recombinant form; rh: recombinant human form), and mouse fetal liver hematopoietic stem cells (CD45(+)c-Kit(+)Sca-1 (+)) (1,000 cells/dish) were cultured. Hematopoietic colony-forming cell assay was performed to evaluate the hematopoietic potential of the cells. Further, for comparison, hematopoietic colony-forming cell assay was performed in a similar manner using a KS-13-free liquid medium (none), and the hematopoietic potential of the cells was evaluated.
Myristoylated KS-13 (30 μg/mL) in which the N-terminal of KS-13 (SEQ ID NO: 1) is myristoylated and control peptide (NQVSIGCPCDGKK: SEQ ID NO: 22) (30 μg/mL) were added to a semisolid medium (Methocult M3434 produced by STEMCELL Technologies) containing cell stimulatory factors (50 ng/mL of rm SCF, 10 ng/mL of rm IL-3, 10 ng/mL of rh IL-6, and 3 U/mL of rh EPO) (rm: recombinant form; rh: recombinant human form) to culture mouse fetal liver hematopoietic stem cells (CD45(+)c— Kit(+)Sca-1(+)) (1,000 cells/dish) therein. Then, hematopoietic colony-forming cell assay was performed to evaluate the hematopoietic potential of the cells.

Molecule	induction of cell death [1]	viability at 264 h, 1 µg/mL ([2]; KS-13 1 μg/mL) [%]	viability at 264 h, 10 µg/mL ([2]; KS-13 10 μg/mL) [%]	number of colonies [3]	colony formation versus control peptide ([3]; 30 μg/mL, 12 days)
CC[C@H](C)[C@H](NC(=O)[C@@H](NC(=O)[C@H](CS)NC(=O)[C@@H]1CCCN1C(=O)CNC(=O)[C@H](CC(=O)O)NC(=O)[C@H](CCCCN)NC(=O)[C@H](CCCCN)NC(=O)[C@H](CCC(N)=O)NC(=O)[C@@H](N)CS)C(C)C)C(=O)N[C@@H](CC(N)=O)C(=O)NCC(=O)N[C@@H](CO)C(=O)O [KS-13, Cys Gln Lys Lys Asp Gly Pro Cys Val Ile Asn Gly Ser] (H-CQKKDGPCVINGS-OH)	does not induce cell death	97.5	97.6		
NQVSIGCPCDGKK (Control peptide) [reference compound]				111.1	
myristoylated KS-13: KS-13 (SEQ ID NO: 1) in which the N-terminal is myristoylated (Myristoyl-CQKKDGPCVINGS; cysteine pairing not given here; listed as Homo sapiens)				93.9	inhibited colony formation more than the control
